Source: the supplement of paper PMC10307832

Assays:
Assay in all cases: relative viability (nuclei count vs DMSO), 5 days (fraction); higher = more cells survive
Irinotecan + Decitabine = compound: CCc1c2c(nc3ccc(OC(=O)N4CCC(N5CCCCC5)CC4)cc13)-c1cc3c(c(=O)n1C2)COC(=O)[C@]3(O)CC [Irinotecan] + Nc1ncn([C@H]2C[C@H](O)[C@@H](CO)O2)c(=O)n1 [Decitabine] (partner 2 µM)
Summary of the method: (§1)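 For relative viability, nuclei counts in treated wells were divided by those in vehicle wells. Lung cancer cell lines had been pin-tool dosed in 1536-well plates the day after seeding and cultured for 5 days, then fixed and stained in one step (final 0.05% Triton X-100, 1% formaldehyde, 1 ug/ml Hoechst) and imaged at 4×. Doses were one drug alone or a fixed anchor-drug dose plus five library-drug doses (not always all listed) in √10 steps, and values are duplicate-plate medians.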

MK-8033 + Trametinib = compound: Cn1cc(-c2cnc3ccc4ccc(CS(=O)(=O)NCc5ccccn5)cc4c(=O)c3c2)cn1 [MK-8033] + CC(=O)Nc1cccc(-n2c(=O)n(C3CC3)c(=O)c3c(Nc4ccc(I)cc4F)n(C)c(=O)c(C)c32)c1 [Trametinib] (partner 0.02 µM)
Summary of the method: as §1

RU-SKI 43 + Luminespib = compound: CC[C@@H](C)CNCC(=O)N1CCC2=C([C@@H]1COC3=CC=CC(=C3)C)C=CS2 [RU-SKI 43] + CCNC(=O)c1noc(-c2cc(C(C)C)c(O)cc2O)c1-c1ccc(CN2CCOCC2)cc1 [Luminespib] (partner 0.01 µM)
Summary of the method: as §1

Irinotecan + Phenformin = compound: CCc1c2c(nc3ccc(OC(=O)N4CCC(N5CCCCC5)CC4)cc13)-c1cc3c(c(=O)n1C2)COC(=O)[C@]3(O)CC [Irinotecan] + N=C(N)NC(=N)NCCc1ccccc1 [Phenformin] (partner 250 µM)
Summary of the method: as §1

UMC-11
relative viability (Irinotecan + Decitabine; first compound 0.6325 µM): 0.589 | relative viability (Irinotecan + Decitabine; first compound 2 µM): 0.461 | relative viability (Irinotecan + Decitabine; first compound 6.325 µM): 0.347 | relative viability (Irinotecan + Decitabine; first compound 20 µM): 0.2 | relative viability (MK-8033 + Trametinib; first compound 0.02 µM): 0.714 | relative viability (MK-8033 + Trametinib; first compound 0.06325 µM): 0.457 | relative viability (MK-8033 + Trametinib; first compound 0.2 µM): 0.604 | relative viability (MK-8033 + Trametinib; first compound 0.6325 µM): 0.643 | relative viability (MK-8033 + Trametinib; first compound 2 µM): 0.642 | relative viability (RU-SKI 43 + Luminespib; first compound 0.1 µM): 1.13 | relative viability (RU-SKI 43 + Luminespib; first compound 0.3162 µM): 1.29 | relative viability (RU-SKI 43 + Luminespib; first compound 1 µM): 1 | relative viability (RU-SKI 43 + Luminespib; first compound 3.162 µM): 1.04 | relative viability (RU-SKI 43 + Luminespib; first compound 10 µM): 1.09 | relative viability (Irinotecan + Phenformin; first compound 0.6325 µM): 0.294 | relative viability (Irinotecan + Phenformin; first compound 2 µM): 0.235 | relative viability (Irinotecan + Phenformin; first compound 6.325 µM): 0.196 | relative viability (Irinotecan + Phenformin; first compound 20 µM): 0.189
